In patent publication US8242174B2 (priority 2007, dated 2012):

Biological target: Lethal factor protease (Bacillus anthracis, UniProt P15917)
Experiment: biochemical

Sequence of Lethal factor protease (P15917 34-809 limits assumed): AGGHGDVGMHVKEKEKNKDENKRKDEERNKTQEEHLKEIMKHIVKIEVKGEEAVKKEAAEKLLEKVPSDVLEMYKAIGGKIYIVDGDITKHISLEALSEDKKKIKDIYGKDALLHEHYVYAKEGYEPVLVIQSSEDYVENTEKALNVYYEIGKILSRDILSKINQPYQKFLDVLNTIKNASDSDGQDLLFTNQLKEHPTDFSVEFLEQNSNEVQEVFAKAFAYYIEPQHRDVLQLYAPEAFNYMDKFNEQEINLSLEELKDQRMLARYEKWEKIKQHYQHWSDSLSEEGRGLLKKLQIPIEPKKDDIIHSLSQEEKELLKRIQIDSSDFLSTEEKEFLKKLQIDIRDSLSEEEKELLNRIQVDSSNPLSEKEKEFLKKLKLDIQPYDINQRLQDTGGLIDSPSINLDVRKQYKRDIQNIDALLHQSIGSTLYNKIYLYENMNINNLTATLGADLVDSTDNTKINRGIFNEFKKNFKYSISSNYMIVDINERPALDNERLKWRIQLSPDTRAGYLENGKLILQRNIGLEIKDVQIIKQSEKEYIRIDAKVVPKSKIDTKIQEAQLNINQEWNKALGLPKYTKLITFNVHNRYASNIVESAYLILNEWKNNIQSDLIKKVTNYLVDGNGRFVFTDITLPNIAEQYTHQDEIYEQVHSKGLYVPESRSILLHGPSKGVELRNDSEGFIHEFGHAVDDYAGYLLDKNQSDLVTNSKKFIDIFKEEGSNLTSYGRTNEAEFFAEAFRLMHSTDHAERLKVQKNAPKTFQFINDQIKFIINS

| Structure (SMILES) | Ki [µM] |
| --- | --- |
| Cc1cc(N[C@H](CCCCN(Cc2ccccc2)Cc2ccccc2)C(=O)NO)ccc1F [Compound 167982, (R)-6-Dibenzylamino-2-(4-fluoro-3-methyl-phenylamino)-hexanoic acid hydroxyamide] | 1.8 |
| Cc1cc(COCCCC[C@@H](Nc2cc(C)c(F)c(C)c2)C(=O)NO)ccc1F [Compound 168116, (R)-2-(4-Fluoro-3,5-dimethyl-phenylamino)-6-(4-fluoro-3-methyl-benzyloxy)-hexanoic acid hydroxyamide] | 0.71 |
| Cc1cc(N[C@H](CCCCNCc2ccc3c(c2)OCO3)C(=O)NO)ccc1F [Compound 168145, (R)-6-[(Benzo[1,3]dioxol-5-ylmethyl)-amino]-2-(4-fluoro-3-methyl-phenylamino)-hexanoic acid hydroxyamide] | 0.17 |
| CCCCC(Nc1cccc(C(C)C)c1)C(=O)NO (stereo not shown) [Compound 167183, 2-(3-Isopropyl-phenylamino)-hexanoic acid hydroxyamide] | > 300 |
| Cc1cc(N[C@H](CCCCn2c(C)ccc2C)C(=O)NO)cc(C)c1F [Compound 167605, (R)-6-(2,5-Dimethyl-pyrrol-1-yl)-2-(4-fluoro-3,5-dimethyl-phenylamino)-hexanoic acid hydroxyamide] | 2 |
| CCCCC(Nc1ccc(F)c(C)c1)C(=O)NO (stereo not shown) [Compound 167162, 2-(4-Fluoro-3-methyl-phenylamino)-hexanoic acid hydroxyamide] | 2 |
| Cc1cc(NCC(=O)NO)ccc1F [Compound 166986, 2-(4-Fluoro-3-methyl-phenylamino)-N-hydroxy-acetamide] | 7.6 |
| Cc1cc(CNCCCC[C@@H](Nc2cc(C)c(F)c(C)c2)C(=O)NO)cc(C)c1F [Compound 167759, 6-(4-Fluoro-3,5-dimethyl-benzylamino)-2-(4-fluoro-3,5-dimethyl-phenylamino)-hexanoic acid hydroxyamide] | 0.07 |
| CCCCC(Nc1cc(C)cc(F)c1)C(=O)NO (stereo not shown) [Compound 167722, 2-(3-Fluoro-5-methyl-phenylamino)-hexanoic acid hydroxyamide] | 19 |
| Cc1cc(N[C@H](CCCCNS(=O)(=O)c2ccc(F)cc2)C(=O)NO)cc(C)c1F [Compound 167589, (R)-6-(4-Fluoro-benzenesulfonylamino)-2-(4-fluoro-3,5-dimethyl-phenylamino)-hexanoic acid hydroxyamide] | 1.25 |
| Cc1cc(N[C@H](CCCCNS(=O)(=O)c2cccc(C(=O)O)c2)C(=O)NO)cc(C)c1F [Compound 167621, (R)-3-[5-(4-Fluoro-3,5-dimethyl-phenylamino)-5-hydroxycarbamoyl-pentylsulfamoyl]-benzoic acid] | 1.57 |
| Cc1cc(N[C@H](CCCCNS(=O)(=O)c2ccc(N(C)C)cc2)C(=O)NO)cc(C)c1F [Compound 167699, (R)-6-(4-Dimethylamino-benzenesulfonylamino)-2-(4-fluoro-3,5-dimethyl-phenylamino)-hexanoic acid hydroxyamide] | 0.43 |
| CCCCC(Nc1ccc(F)c(C#N)c1)C(=O)NO (stereo not shown) [Compound 167720, 2-(3-Cyano-4-fluoro-phenylamino)-hexanoic acid hydroxyamide] | 11.8 |
| CCCCC(Nc1cc(OC)cc(OC)c1)C(=O)NO (stereo not shown) [Compound 167772, 2-(3,5-Dimethoxy-phenylamino)-hexanoic acid hydroxyamide] | 257 |
| CC[C@@H](Nc1cc(C)c(F)c(C)c1)C(=O)NO [Compound 167450, (R)-2-(4-Fluoro-3,5-dimethyl-phenylamino)-N-hydroxy-butyramide] | 0.67 |
| CC(=O)NCCCC[C@@H](Nc1cc(C)c(F)c(C)c1)C(=O)NO [Compound 167552, (R)-6-Acetylamino-2-(4-fluoro-3,5-dimethyl-phenylamino)-hexanoic acid hydroxyamide] | 2.53 |

| Structure (SMILES) | Ki [µM] |
| --- | --- |
| Cc1cc(N[C@H](CCCCNCc2cnccn2)C(=O)NO)ccc1F [Compound 168168, (R)-2-(4-Fluoro-3-methyl-phenylamino)-6-[(pyrazin-2-ylmethyl)-amino]-hexanoic acid hydroxyamide] | 0.63 |
| Cc1cc(N[C@H](CCCCNCCc2ccccc2)C(=O)NO)ccc1F [Compound 167979, (R)-2-(4-Fluoro-3-methyl-phenylamino)-6-phenethylamino-hexanoic acid hydroxyamide] | 0.21 |
| CCCCC(Nc1ccc(F)c(Cl)c1)C(=O)NO (stereo not shown) [Compound 167322, 2-(3-Chloro-4-fluoro-phenylamino)-hexanoic acid hydroxyamide] | 17.1 |
| Cc1cc(NC(CCCC(F)(F)F)C(=O)NO)cc(C)c1F (stereo not shown) [Compound 167483, 6,6,6-Trifluoro-2-(4-fluoro-3,5-dimethyl-phenylamino)-hexanoic acid hydroxyamide] | 1.3 |
| Cc1cc(N[C@H](CCCCNCc2ccc(F)nc2)C(=O)NO)ccc1F [Compound 167978, (R)-2-(4-Fluoro-3-methyl-phenylamino)-6-[(6-fluoro-pyridin-3-ylmethyl)-amino]-hexanoic acid hydroxyamide] | 0.26 |
| Cc1cc(N[C@H](CCCCN(Cc2ccc(F)nc2)Cc2ccc(F)nc2)C(=O)NO)ccc1F [Compound 168080, (R)-6-[Bis-(6-fluoro-pyridin-3-ylmethyl)-amino]-2-(4-fluoro-3-methyl-phenylamino)-hexanoic acid hydroxyamide] | 10.6 |
| Cc1cc(N[C@H](CC2CCCCC2)C(=O)NO)cc(C)c1F [Compound 167405, (R)-3-Cyclohexyl-2-(4-fluoro-3,5-dimethyl-phenylamino)-N-hydroxy-propionamide] | 1.48 |
| Cc1cc(CN(CCCC[C@@H](Nc2cc(C)c(F)c(C)c2)C(=O)NO)Cc2ccc(F)c(C)c2)ccc1F [Compound 167933, (R)-6-[Bis-(4-fluoro-3-methyl-benzyl)-amino]-2-(4-fluoro-3,5-dimethyl-phenylamino)-hexanoic acid hydroxyamide] | 1.9 |
| CCCCC(Nc1cc(C)cc(Br)c1)C(=O)NO (stereo not shown) [Compound 167844, 2-(3-Bromo-5-methyl-phenylamino)-hexanoic acid hydroxyamide] | 3.5 |
| Cc1cc(N[C@@H](C)C(=O)NO)cc(C)c1F [Compound 167498, (S)-2-(4-Fluoro-3,5-dimethyl-phenylamino)-N-hydroxy-propionamide] | 51 |
| Cc1cccc(CN(CCCC[C@@H](Nc2cc(C)c(F)c(C)c2)C(=O)NO)Cc2cccc(C)c2)c1 [Compound 167932, (R)-6-[Bis-(3-methyl-benzyl)-amino]-2-(4-fluoro-3,5-dimethyl-phenylamino)-hexanoic acid hydroxyamide] | 1.1 |
| CCCC[C@@H](Nc1ccc(F)c(C)c1)C(=O)NO [Compound 167273, (R)-2-(4-Fluoro-3-methyl-phenylamino)-hexanoic acid hydroxyamide] | 0.71 |
| Cc1cc(N[C@H](CCCCNC(=O)C(c2ccccc2)c2ccccc2)C(=O)NO)cc(C)c1F [Compound 167610, (R)-6-Diphenylacetylamino-2-(4-fluoro-3,5-dimethyl-phenylamino)-hexanoic acid hydroxyamide] | 1.34 |
| CCCCC(Nc1cc(Cl)cc(Cl)c1)C(=O)NO (stereo not shown) [Compound 167718, 2-(3,5-Dichloro-phenylamino)-hexanoic acid hydroxyamide] | 12.2 |
| Cc1cc(NC(C(=O)NO)c2ccccc2)ccc1F (stereo not shown) [Compound 167228, 2-(4-Fluoro-3-methyl-phenylamino)-N-hydroxy-2-phenyl-acetamide] | 2.8 |
